Reference: patent US9504697B2, “Progesterone treatment for improving sleep quality” (BESINS Healthcare Luxembourg SARL, priority 2011, dated 2016)

How the values were obtained:
postmenopausal women [1] = experiment: Hormone levels (GH, IGF-I, TSH, free T4) from 24 hour blood sampling in the placebo-controlled study; type: in vivo, human
Experimental: Each study included an initial 20 day ambulatory period. During this period, the subjects were asked to maintain regular sleep-wake cycles (bedtime 2300-0700 h in darkness) and meal schedules (0800 h, 1230 h, 1900 h). They took daily, at 2300 h, a capsule of either 300 mg of progesterone or placebo.
At the end of the ambulatory period, they were admitted at about 1600 h to the sleep laboratory for 44 hours. During hospitalization, subjects were maintained in a seated/upright position in normal indoor light conditions (+/−300 lux), and no naps were allowed during the scheduled wake periods (0700-2300 h). Meals were served at 0800 h, 1230 h, and 1900 h. At 2300 h, they received their usual capsule of either 300 mg of progesterone or placebo. During both scheduled sleep periods (2300-0700 h), subjects were kept recumbent in total darkness and sleep was polygraphically recorded.
On the morning after the first night, a sterile heparin-lock catheter was inserted intravenously in the forearm and blood samples were collected for 24 hours at 15-minute intervals. The iv line was kept permeable by a slow drip of heparinized saline. During the sleep period, the indwelling catheter was connected to plastic tubing extending to an adjacent room and blood samples were collected remotely, as previously described (Leproult et al., 2005, Clin. Endocrinol. 63: 298-304). The total amount of blood withdrawn was less than 300 ml for each inpatient study. The subjects were discharged at about 1200 h after the second night.
Nonparametric tests (Friedman test, Wilcoxon signed rank test, Spearman rank test) were used for statistical calculations (StatView SE+ software for Macintosh computers, Abacus Concepts Inc., Berkeley, Calif.). Detection of outliers was performed by the Grubbs test (Grubbs, 1969, Technometrics 11:1-21; Grubbs and Beck, 1972, Technometrics 14:847-854). All group values are expressed as the mean+/−SEM.
Levels of growth hormone (GH) and thyroid-stimulating hormone (TSH) also were assessed.

men = men orally administered 300 mg progesterone; cited from earlier work
post-menopausal women = post-menopausal women administered 300 mg progesterone; cited from earlier work
postmenopausal women [2] = experiment: Polygraphic sleep recordings in randomized, double-blind, placebo-controlled study, prevention of sleep disturbances; type: in vivo, human
Experimental: Eight postmenopausal women, aged 48-74 yr (mean 57.4 yr), were selected after a careful clinical and biological evaluation. Investigations were performed 2-17 years (mean: 8.0 years) after natural menopause (seven subjects) or bilateral ovariectomy (one subject). Mean age at menopause was 49.4 years (range: 41-57 yr). Three subjects had never received hormone replacement therapy, and five subjects had been off such treatment for 2-6 months (mean: 4.4 months) at the time of enrollment. Body weight was in the normal range for all (mean+/-SEM of body mass index 22.1+/-0.8 kg/m2). In all subjects, estradiol plasma levels were <10 ng/liter. FSH plasma levels averaged 90 IU/liter (range: 66-136 IU/liter). The protocol was designed as a randomized, double-blind, placebo-controlled study. Thereafter, all subjects participated in random order in two studies (referred to as placebo and progesterone), separated from each other by at least 1 month. The placebo study preceded the progesterone study in four subjects and followed the progesterone study in the other four volunteers. Each study included an initial 20 day ambulatory period. During this period, the subjects were asked to maintain regular sleep-wake cycles (bedtime 2300-0700 h in darkness) and meal schedules (0800 h, 1230 h, 1900 h). They took daily, at 2300 h, a capsule of either 300 mg of progesterone or placebo. At the end of the ambulatory period, they were admitted at about 1600 h to the sleep laboratory for 44 hours. During hospitalization, subjects were maintained in a seated/upright position in normal indoor light conditions (+/-300 lux), and no naps were allowed during the scheduled wake periods (0700-2300 h). Meals were served at 0800 h, 1230 h, and 1900 h. At 2300 h, they received their usual capsule of either 300 mg of progesterone or placebo. During both scheduled sleep periods (2300-0700 h), subjects were kept recumbent in total darkness and sleep was polygraphically recorded. On the morning after the first night, a sterile heparin-lock catheter was inserted intravenously in the forearm and blood samples were collected for 24 hours at 15-minute intervals. The iv line was kept permeable by a slow drip of heparinized saline. During the sleep period, the indwelling catheter was connected to plastic tubing extending to an adjacent room and blood samples were collected remotely, as previously described (Leproult et al., 2005, Clin. Endocrinol. 63: 298-304). The total amount of blood withdrawn was less than 300 ml for each inpatient study. The subjects were discharged at about 1200 h after the second night. Polygraphic sleep recordings were visually scored at 30 second intervals, using standardized criteria ([…] and Kales, 1968, Los Angeles: UCLA Brain Information Service/Brain Research Institute) by the same experienced scorer who was blind to the clinical condition of the subject. Sleep onset and morning awakening were defined as, respectively, the times of the first and last 30 second intervals scored II, III, IV, or rapid eye movement (REM). The sleep period was defined as the time interval separating sleep onset and final awakening. Total sleep time was defined as the sleep period minus the total duration of wake after sleep onset (WASO). Sleep latency was defined as the time interval from lights off until sleep onset. Sleep efficiency was calculated as the total sleep time, expressed as percentage of the time allocated to sleep. Slow-wave sleep (SWS) was defined as stages III+IV. A spectral analysis was performed on the central electroencephalogram lead (PRANA, PhiTools, Strasbourg, France) (Latta et al., 2005, Sleep 28: 1525-1534). Muscular, ocular, and movement artifacts were eliminated before spectral analysis. Delta activity was calculated as the absolute spectral power in the frequency band 0.5-4 Hz. Mean delta power was calculated per 30-sec epoch. Delta power in non-REM sleep quantifies slow-wave activity (SWA) (i.e., the intensity of SWS). […]

[3] = night 2 (with catheter), P=0.04

## CC(=O)[C@H]1CC[C@H]2[C@@H]3CCC4=CC(=O)CC[C@]4(C)[C@H]3CC[C@]12C [progesterone, pregn-4-ene-3,20-dione]
Postmenopausal women [1]; 0700-2300 h, mean+/-SEM, similar under both conditions
  GH secretion over the scheduled wake period: 239 ± 91 µg
Postmenopausal women [1]; 2300-0100 period, P=0.05
  slope of the linear regression of TSH values over the 2300-0100 period: significant negative slope
Postmenopausal women [1]; 2300-0700 period, P=0.05 vs placebo
  TSH levels over the 2300-0700 period: 0.98+/−0.18 mU/l
Postmenopausal women [1]; 2300-0700 h, mean+/-SEM, P=0.05 vs placebo
  GH secretion over the scheduled sleep period: 154 ± 44 µg
Postmenopausal women [1]; 24 hour, P=0.07 vs placebo
  24 hour TSH levels: 0.91+/−0.13 mU/l
Postmenopausal women [1]; 24 hour, P=0.53 vs placebo
  24 hour free T4 levels: 10.3 ± 0.4 ng/L
Postmenopausal women [1]; measured on 2-3 morning plasma samples, P=0.09 vs placebo
  IGF-I levels: 103 ± 23 µg/L
men
  effect on sleep pattern: increase of stage N2 time and decrease of stage N3 time and of REM sleep
post-menopausal women
  intermittent time spent awake and REM sleep in the first third of the night: decrease of intermittent time spent awake and increase in REM sleep in the first third of the night
  total duration of REM, Stage 2 or SWS, absolute power spectra; baseline, placebo and progesterone: no significant differences
Postmenopausal women [2]; night 1 (without catheter), 300 mg daily at 2300 h, after 20 day ambulatory period
  sleep duration and architecture, placebo versus progesterone treatment: no differences
Postmenopausal women [2]; night 2 (with catheter)
  sleep latency, stage I, stage II, REM sleep, and REM latency, progesterone versus placebo: no differences
Postmenopausal women [2]; [3]
  sleep efficiency higher under progesterone compared with placebo: 15%
  total SWA higher under progesterone compared with placebo: more than 40%
  total sleep time higher under progesterone compared with placebo: 20%
Postmenopausal women [2]; night 2 (with catheter), P=0.05
  mean WASO duration lower under progesterone compared with placebo: more than 50%
Postmenopausal women [2]; night 2 (with catheter), all eight subjects, mean+/-SEM
  SWS duration: 84 ± 10 min
Postmenopausal women [2]; night 2 (with catheter), outlier excluded from the analysis, mean+/-SEM, P=0.04 vs placebo
  SWS duration, outlier excluded: 79 ± 10 min
Postmenopausal women [2]; under progesterone 300 mg daily, night 2 with iv catheter
  other sleep variables, night 2 compared with night 1: not significantly altered
Postmenopausal women [2]; under progesterone 300 mg daily, night 2 with iv catheter, P=0.04
  decrease in stage II, night 2 compared with night 1: about 20%
Postmenopausal women [2]; under progesterone 300 mg daily, night 2 with iv catheter, P=0.05
  decrease in total sleep time, night 2 compared with night 1: about 20%
Postmenopausal women [2]; under progesterone 300 mg daily, night 2 with iv catheter, P=0.07
  decrease in sleep efficiency, night 2 compared with night 1: about 20%
